# Experiments:
# [1] = tested on: OVCAR3 cells; assay: Cancer cell line proliferation assay, nuclear count, OVCAR3 (CCNE1-amplified); format: cell-based; details: banded
# Method: (§1) h-TERT-RPE1 TP53−/− and CCNE1 high expressing clones (clone cell lines 7 and 15) were treated with test compounds dissolved in DMSO at serially diluted concentrations alongside a DMSO only control for around 6 population doublings time. Cells were then fixed with 4% Paraformaldehyde and the cell nuclei were stained with DAPI (Sigma D9542). Images covering each well were acquired by an Opera Phenix® High-Content Screening System (PerkinElmer). Image analysis was performed using Harmony® high-content analysis software (PerkinElmer). Data analysis was performed using Microsoft Excel® and GI50 estimates generated with GraphPad Prism v9. Percent nuclear count was compared to vehicle control wells and used to measure inhibition of proliferation.
# (§2) Cancer cell lines with either normal (KYSE-30) or amplified CCNE1 expression (OVCAR3-ovarian cancer) were evaluated for their sensitivity to PKMYT1 inhibitors in a nuclear count assay as described above for h-TERT-RPE1 TP53−/− and a CCNE1 high expressing clones, taking into account the slower cell cycle division times of these lines.
# [2] = tested on: KYSE-30 cells; assay: Cancer cell line proliferation assay, nuclear count, KYSE-30 (normal CCNE1); format: cell-based; details: Homo sapiens, normal CCNE1 expression, banded, read-out: KYSE30 GI50
# Method: as §1, §2
# [3] = tested on: OVCAR 3 cells; assay: Cancer cell line proliferation assay, ATP-based cell viability (Cell Titre Glow), OVCAR 3 (CCNE1-amplified); details: KYSE30 (normal CCNE1) GI50 vs. OVCAR 3 (CCNE1-amplified) GI50
# Method in brief: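 Proliferation of KYSE-30 (normal CCNE1) and CCNE1-amplified OVCAR 3 ovarian cancer cells treated with PKMYT1 inhibitors, read by Cell Titre Glow luminescence. GI50 is the concentration giving 50% growth inhibition.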
# [4] = biological target: T1, Cellular PKMYT1 Biomarker CDK1 pT14 (Homo sapiens, UniProt Q99640); assay: Inhibition of cellular PKMYT1 biomarker CDK1 pT14 in OVCAR 3 cells (immunoblot); format: cell-based; details: 20 hours incubation
# T1 construct: read-out CDK1 phospho-T14 immunoblot
# T1 sequence (Q99640 1-499): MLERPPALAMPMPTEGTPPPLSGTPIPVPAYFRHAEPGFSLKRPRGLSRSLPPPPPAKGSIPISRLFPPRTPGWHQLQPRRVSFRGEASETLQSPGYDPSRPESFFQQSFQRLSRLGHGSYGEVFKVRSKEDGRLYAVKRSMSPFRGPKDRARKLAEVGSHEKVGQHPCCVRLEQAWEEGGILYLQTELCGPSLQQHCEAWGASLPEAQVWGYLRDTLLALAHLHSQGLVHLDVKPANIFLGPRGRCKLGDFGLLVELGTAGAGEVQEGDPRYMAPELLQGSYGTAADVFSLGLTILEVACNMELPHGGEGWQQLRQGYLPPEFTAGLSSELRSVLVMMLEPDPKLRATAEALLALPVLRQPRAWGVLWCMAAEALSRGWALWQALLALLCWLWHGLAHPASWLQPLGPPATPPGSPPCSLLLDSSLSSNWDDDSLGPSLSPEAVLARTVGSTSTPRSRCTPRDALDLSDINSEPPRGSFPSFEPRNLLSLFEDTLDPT
# Method in brief: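 Confluent OVCAR 3 cells treated with a compound concentration range for 20 h at 37 °C. Lysates analysed by automated capillary immunoblot for CDK1 phospho-T14, with vinculin, fluorescence detection; IC50 by regression.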
structure (smiles),measurement,setting,value
"CCN(CC)C(=O)Cn1cc(C)c(Nc2ncc(C(=O)Nc3c(C)ccc(O)c3C)s2)n1 [BAA-207, 2-[[1-[2-(diethylamino)-2-oxo-ethyl]-4-methyl-pyrazol-3-yl]amino]-N-(3-hydroxy-2,6-dimethyl-phenyl)thiazole-5-carboxamide]",Selectivity ratio KYSE30 GI50 vs. OVCAR3 GI50,"[1]; GI50 ratio KYSE30 vs. OVCAR3, >N = at least in this band",Z (>30 fold)
same,GI50,"[1]; Homo sapiens, OVCAR-3, CCNE1-amplified ovarian cancer, nuclear count",< 0.5 µM
same,GI50,[2],3 to 10 µM
same,Selectivity ratio KYSE30 Gl50 vs. OVCAR3 Gl50,[3],Y (>20 fold)
same,IC50,[4],< 0.1 µM

# Reference: patent publication US20260297042A1, “BIARYLAMIDE DERIVATIVES AND THEIR USE AS PKMYT1 INHIBITORS” (CANCER RESEARCH TECHNOLOGY LIMITED, priority 2023, published 2026)
